# Laboratory results as given in patent US3980794A, “Method for promoting growth of poultry with 3-(5-nitro-2-imidazolyl)pyrazoles” (Eli Lilly and Company, priority 1975, dated 1976).
# Like-named read-outs stand apart in the source and are kept apart here.
# Assays:
# [1] = test system: Clostridium ramosum 1313; test: Susceptibility of anaerobic bacteria, agar dilution; type: cell-based; conditions: read-out: 24 Hr. Minimum Inhibitory Concentration
# [2] = test system: Salmonella typhimurium; test: Control of infections caused by Salmonella typhimurium in chickens, subcutaneous (Experiment 2); type: in vivo; conditions: Salmonella enterica, sc, 144 h, 6 days, read-out: Survival Ratio (converted); for responders at 3.75 mg/kg: 3.75 mg./kg. subcutaneous; for responders at 7.5 mg/kg: 7.5 mg./kg. subcutaneous; for responders at 15 mg/kg: 15 mg./kg. subcutaneous; for responders at 30 mg/kg: 30 mg./kg. subcutaneous; for responders at 60 mg/kg: 60 mg./kg. subcutaneous
# Experimental: The efficacy of the novel compounds in the control of infections caused by Salmonella typhimurium in chickens was evaluated in the following manner.
# The test was carried out using day-old chicks weighing approximately 35 g. each. The chicks were divided into groups of 5 chicks per each dosage level. A portion of the chicks received the test compound which was suspended in 0.2 ml. of polyethylene glycol 200 and administered subcutanusly in the neck. […] All the chicks were challenged with a 1:200 dilution of a culture of the organism, 0.1 ml. of the dilution being injected into each chick in the leg intramuscularly. […] The test compounds are identified in the same manner as set forth in Experiment 1.
# In the chart, column 1 lists the compounds tested; column 2, the dosage of test compound in mg./kg.; and column 3, the survival ratio.
# [3] = test system: Clostridium innocuum 1373; test: Susceptibility of anaerobic bacteria, agar dilution; type: cell-based; conditions: read-out: 24 Hr. Minimum Inhibitory Concentration
# [4] = test system: Veillonella alcalescens 1; test: as above; type: cell-based; conditions: read-out: 24 Hr. Minimum Inhibitory Concentration
# [5] = test system: Bacteroides fragilis sp. fragilis 1936B; test: as above; type: cell-based; conditions: 24 h, read-out: 24 Hr. Minimum Inhibitory Concentration
# [6] = test system: Propionibacterium acnes 79; test: as above; type: cell-based; conditions: read-out: 24 Hr. Minimum Inhibitory Concentration
# [7] = test system: Bacteroides fragilis sp. thetaiotaomicron 1438; test: as above; type: cell-based; conditions: 24 h, read-out: 24 Hr. Minimum Inhibitory Concentration
# [8] = test system: Propionibacterium acnes 44; test: as above; type: cell-based; conditions: Cutibacterium acnes, 24 h; Propionibacterium acnes 44; read-out: 24 Hr. Minimum Inhibitory Concentration
# [9] = test system: Eubacterium aerofaciens 1235; test: as above; type: cell-based; conditions: read-out: 24 Hr. Minimum Inhibitory Concentration
# [10] = test system: Actinomyces bovis 13684; test: as above; type: cell-based; conditions: read-out: 24 Hr. Minimum Inhibitory Concentration
# [11] = test system: Bacteroides fragilis sp. vulgatus 1211; test: as above; type: cell-based; conditions: 24 h, read-out: 24 Hr. Minimum Inhibitory Concentration
# [12] = test system: Clostridium perfringens 81; test: microbe, parasite or virus in culture; type: cell-based; conditions: Clostridium perfringens, 81, 24 h, read-out: 24 Hr. Minimum Inhibitory Concentration
# [13] = test system: Fusobacterium necrophorum 13859; test: Susceptibility of anaerobic bacteria, agar dilution; type: cell-based; conditions: read-out: 24 Hr. Minimum Inhibitory Concentration
# [14] = test system: Bacteroides fragilis sp. vulgatus 1563; test: as above; type: cell-based; conditions: 24 h, read-out: 24 Hr. Minimum Inhibitory Concentration
# [15] = test system: Peptococcus anaerobius 1428; test: as above; type: cell-based; conditions: 24 h, read-out: 24 Hr. Minimum Inhibitory Concentration
# [16] = test system: Peptostreptococcus intermedius 1264; test: as above; type: cell-based; conditions: 24 h; Peptostreptococcus intermedius 1264; read-out: 24 Hr. Minimum Inhibitory Concentration
# [17] = Thomasclavelia ramosa, 1313, 24 h
# [18] = [Clostridium] innocuum, 1373, 24 h
# [19] = Collinsella aerofaciens, 1235, 24 h
# [20] = Fusobacterium necrophorum, 13859, 24 h
# [21] = Thomasclavelia ramosa, 24 h, Clostridium ramosum 1313
# [22] = 24 h, Clostridium innocuum 1373
# [23] = Veillonella parvula, 24 h, Veillonella alcalescens 1
# [24] = Bacteroides fragilis sp. fragilis 1936B
# [25] = Cutibacterium acnes, 24 h, Propionibacterium acnes 79
# [26] = Bacteroides fragilis sp. thetaiotaomicron 1438
# [27] = Collinsella aerofaciens, 24 h, Eubacterium aerofaciens 1235
# [28] = Bacteroides fragilis sp. vulgatus 1211
# [29] = 24 h, Fusobacterium necrophorum 13859
# [30] = Bacteroides fragilis sp. vulgatus 1563
Compound,"MIC [1, 17] [µg/mL]",responders at 3.75 mg/kg [2] [%],responders at 7.5 mg/kg [2] [%],responders at 15 mg/kg [2] [%],responders at 30 mg/kg [2] [%],responders at 60 mg/kg [2] [%],"MIC [3, 18] [µg/mL]","MIC ([4]; Veillonella parvula, 1, 24 h) [µg/mL]",MIC ([5]; Bacteroides fragilis) [µg/mL],"MIC ([6]; Cutibacterium acnes, 79, 24 h) [µg/mL]",MIC ([7]; Bacteroides fragilis) [µg/mL],MIC [8] [µg/mL],"MIC [9, 19] [µg/mL]","MIC ([10]; Actinomyces bovis, 13684, 24 h) [µg/mL]",MIC ([11]; Bacteroides fragilis) [µg/mL],MIC [12] [µg/mL],"MIC [13, 20] [µg/mL]",MIC ([14]; Bacteroides fragilis) [µg/mL],MIC [15] [µg/mL],MIC [16] [µg/mL],further results
"COC=Nc1c(C#N)c(-c2ncc([N+](=O)[O-])n2C)nn1C [Compound 6, Methyl N-[4-cyano-1-methyl-3-(1-methyl-5-nitro-2-imidazolyl)pyrazol-5-yl]formimidate]",< 0.125,80,90,50,50,46.7,< 0.125,< 0.125,< 0.125,< 0.125,< 0.125,> 32,< 0.125,< 0.125,< 0.125,< 0.125,< 0.125,< 0.125,< 0.125,1,–
"CCCCOC=Nc1c(C#N)c(-c2ncc([N+](=O)[O-])n2C)nn1C [Compound 7, Butyl N-[4-Cyano-1-methyl-3-(1-methyl-5-nitro-2-imidazolyl)-pyrazol-5-yl]formimidate]",< 0.125,–,0,55,40,55,< 0.125,< 0.125,< 0.125,< 0.125,< 0.125,> 32,< 0.125,< 0.125,< 0.125,< 0.125,< 0.125,< 0.125,< 0.125,2,–
"CC(=O)Nc1c(C(=O)O)c(-c2ncc([N+](=O)[O-])n2C)nn1C [Compound 12, 5-acetamido-1-methyl-3-(1-methyl-5-nitro-2-imidazolyl)pyrazole-4-carboxylic acid]",–,–,–,–,–,–,–,–,–,–,–,> 32,–,–,–,8,–,–,–,32,"MIC [1, 21]: 4 µg/mL; MIC [3, 22]: 8 µg/mL; MIC [4, 23]: 0.5 µg/mL; MIC [5, 24]: 16 µg/mL; MIC [6, 25]: 1 µg/mL; MIC [7, 26]: 2 µg/mL; MIC [9, 27]: 1 µg/mL; MIC ([10]; 24 h, Actinomyces bovis 13684): 0.5 µg/mL; MIC [11, 28]: 2 µg/mL; MIC [13, 29]: < 0.125 µg/mL; MIC [14, 30]: 1 µg/mL; MIC ([15]; Peptococcus anaerobius 1428): 8 µg/mL"
"CCCCC(CC)COC=Nc1c(C#N)c(-c2ncc([N+](=O)[O-])n2C)nn1C (centres unmarked) [Compound 13D, 2-Ethylhexyl N-[4-cyano-1-methyl-3-(1-methyl-5-nitro-2-imidazolyl)pyrazol-5-yl]formimidate]",–,–,–,10,10,33.3,–,–,–,–,–,16,–,–,–,1,–,–,–,16,"MIC [1, 21]: 1 µg/mL; MIC [3, 22]: 1 µg/mL; MIC [4, 23]: 0.25 µg/mL; MIC [5, 24]: 0.5 µg/mL; MIC [6, 25]: 2 µg/mL; MIC [7, 26]: 1 µg/mL; MIC [9, 27]: 2 µg/mL; MIC ([10]; 24 h, Actinomyces bovis 13684): 1 µg/mL; MIC [11, 28]: 1 µg/mL; MIC [13, 29]: < 0.125 µg/mL; MIC [14, 30]: 0.5 µg/mL; MIC ([15]; Peptococcus anaerobius 1428): 2 µg/mL"
"C=CCOC=Nc1c(C#N)c(-c2ncc([N+](=O)[O-])n2C)nn1C [Compound 13A, Allyl N-[4-cyano-1-methyl-3-(1-methyl-5-nitro-2-imidazolyl)pyrazol-5-yl]formimidate]",–,40,46.7,53.3,33.3,50,–,–,–,–,–,> 128,–,–,–,1,–,–,–,16,"MIC [1, 21]: 4 µg/mL; MIC [3, 22]: 1 µg/mL; MIC [4, 23]: < 0.125 µg/mL; MIC [5, 24]: 2 µg/mL; MIC [6, 25]: < 0.125 µg/mL; MIC [7, 26]: 0.25 µg/mL; MIC [9, 27]: < 0.125 µg/mL; MIC ([10]; 24 h, Actinomyces bovis 13684): 0.5 µg/mL; MIC [11, 28]: < 0.125 µg/mL; MIC [13, 29]: < 0.125 µg/mL; MIC [14, 30]: 0.25 µg/mL; MIC ([15]; Peptococcus anaerobius 1428): 2 µg/mL"
"Cn1nc(-c2ncc([N+](=O)[O-])n2C)c(C(N)=O)c1N [Compound 2, 5-Amino-1-methyl-3-(1-methyl-5-nitro-2-imidazolyl)pyrazole-4-carboxamide]",< 0.125,–,0,40,44,46.7,< 0.125,< 0.125,< 0.125,< 0.125,< 0.125,0.5,< 0.125,< 0.125,< 0.125,< 0.125,< 0.125,< 0.125,< 0.125,1,–
"Cn1nc(-c2ncc([N+](=O)[O-])n2C)c(C#N)c1N [Compound 1, 5-Amino-1-methyl-3-(1-methyl-5-nitro-2-imidazolyl)pyrazole-4-carbonitrile]",< 0.125,44,62.9,72,54,67.1,< 0.125,< 0.125,< 0.125,< 0.125,< 0.125,> 32,< 0.125,< 0.125,< 0.125,< 0.125,< 0.125,< 0.125,< 0.125,0.5,–
